Results taken from PubChem BioAssay AID248 (DTP/NCI, 2004).
Several values for one entry are separate records, joined by “and”; a condition that tells them apart may be missing. Equal entries are not always repeated. Inconclusive results and toxic doses are left out. Cut-off read from the data, not from the text of the source: active = T/C of 150% or more; inactive = T/C below 125%.

Tested on: L1210 leukemia ip in BDF1 mice, survival T/C
Assay: NCI In Vivo Anticancer Drug Screen. Data for tumor model L1210 Leukemia (intraperitoneal) in B6D2F1 (BDF1) mice
Conditions: endpoint: mean survival time, higher = longer survival
Summary of the method: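 Antitumor effect is assessed in tumor-bearing animals. Survival in the compound arm is compared with a vehicle-dosed control arm and expressed as their quotient.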

[1] = dose: 25.0 mg/kg/injection, schedule: Q01DX009 (ip), vehicle: saline
[2] = dose: 50.0 mg/kg/injection, schedule: Q01DX009 (ip), vehicle: saline
[3] = dose: 100.0 mg/kg/injection, schedule: Q04DX003 (ip), vehicle: saline
[4] = dose: 100.0 mg/kg/injection, schedule: Q04DX002 (ip), vehicle: Klucel (hydroxypropylcellulose) (HPC)
[5] = dose: 200.0 mg/kg/injection, schedule: Q04DX002 (ip), vehicle: Klucel (hydroxypropylcellulose) (HPC)
[6] = dose: 400.0 mg/kg/injection, schedule: Q04DX002 (ip), vehicle: Klucel (hydroxypropylcellulose) (HPC)
[7] = dose: 200.0 mg/kg/injection, schedule: Q04DX003 (ip), vehicle: saline
[8] = dose: 400.0 mg/kg/injection, schedule: Q04DX003 (ip), vehicle: saline
[9] = dose: 100.0 mg/kg/injection, schedule: Q01DX009 (ip), vehicle: Klucel (hydroxypropylcellulose) (HPC)
[10] = dose: 100.0 mg/kg/injection, schedule: Q04DX003 (ip), vehicle: Klucel (hydroxypropylcellulose) (HPC)
[11] = dose: 200.0 mg/kg/injection, schedule: Q01DX009 (ip), vehicle: Klucel (hydroxypropylcellulose) (HPC)
[12] = dose: 400.0 mg/kg/injection, schedule: Q01DX009 (ip), vehicle: Klucel (hydroxypropylcellulose) (HPC)
[13] = dose: 400.0 mg/kg/injection, schedule: Q04DX003 (ip), vehicle: Klucel (hydroxypropylcellulose) (HPC)
[14] = dose: 100.0 mg/kg/injection, schedule: Q01DX001 (ip), vehicle: saline
[15] = dose: 200.0 mg/kg/injection, schedule: Q01DX001 (ip), vehicle: saline
[16] = dose: 400.0 mg/kg/injection, schedule: Q01DX001 (ip), vehicle: saline

Measured: T/C

Cc1nc(N)[nH]c(=O)c1CCCNc1ccc(CCCCC2(CCl)OCCO2)cc1
inactive: dose: 50.0 mg/kg/injection, schedule: Q01DX Z (ip), vehicle: carboxymethylcellulose (CMC) 98 % of control | dose: 100.0 mg/kg/injection, schedule: Q01DX Z (ip), vehicle: carboxymethylcellulose (CMC) 101 % of control | dose: 200.0 mg/kg/injection, schedule: Q01DX Z (ip), vehicle: carboxymethylcellulose (CMC) 95 % of control | dose: 400.0 mg/kg/injection, schedule: Q01DX Z (ip), vehicle: carboxymethylcellulose (CMC) 101 % of control

C=CCOP(OCC=C)OCC=C
inactive: [1] 103 % of control | [2] 103 % of control | dose: 50.0 mg/kg/injection, schedule: Q04DX003 (ip), vehicle: saline 97 % of control | dose: 100.0 mg/kg/injection, schedule: Q01DX009 (ip), vehicle: saline 87 % of control | [3] 101 % of control

C1CCCCCC(NC2=NCCO2)CCCCC1
inactive: dose: 25.0 mg/kg/injection, schedule: Q04DX003 (ip), vehicle: saline with Tween-80 97 % of control | dose: 50.0 mg/kg/injection, schedule: Q04DX003 (ip), vehicle: saline with Tween-80 102 % of control | dose: 100.0 mg/kg/injection, schedule: Q04DX003 (ip), vehicle: saline with Tween-80 88 % of control

O=C(Nc1cc(C(F)(F)F)ccc1Cl)N(Cc1ccccc1)c1ccccc1
inactive: [4] 93 % of control and 108 % of control | [5] 98 % of control and 118 % of control | [6] 98 % of control | dose: 800.0 mg/kg/injection, schedule: Q04DX002 (ip), vehicle: Klucel (hydroxypropylcellulose) (HPC) 94 % of control

Cc1ccc(Nc2cc(=S)nc(N)[nH]2)cc1Cl
inactive: dose: 100.0 mg/kg/injection, schedule: Q01DX Z (ip), vehicle: methylcellulose (MC) 97 % of control | dose: 200.0 mg/kg/injection, schedule: Q01DX Z (ip), vehicle: methylcellulose (MC) 96 % of control

NNc1ncnc(SCc2ccccc2)c1N
inactive: dose: 50.0 mg/kg/injection, schedule: Q01DX001 (ip), vehicle: carboxymethylcellulose (CMC) 93 % of control | dose: 100.0 mg/kg/injection, schedule: Q01DX001 (ip), vehicle: carboxymethylcellulose (CMC) 98 % of control | dose: 200.0 mg/kg/injection, schedule: Q01DX001 (ip), vehicle: carboxymethylcellulose (CMC) 89 % of control | dose: 400.0 mg/kg/injection, schedule: Q01DX001 (ip), vehicle: carboxymethylcellulose (CMC) 89 % of control

CNc1ccccc1C(=O)N/N=C/Cc1ccccc1
inactive: [4] 103 % of control | [5] 92 % of control | [6] 106 % of control

CSC(=O)C(C)(C)C
inactive: dose: 75.0 mg/kg/injection, schedule: Q01DX001 (ip), vehicle: saline 103 % of control | dose: 150.0 mg/kg/injection, schedule: Q01DX001 (ip), vehicle: saline 97 % of control

CCC1(O)CC2CN(CCc3c([nH]c4ccccc34)C(C(=O)OC)(c3cc4c(cc3OC)N(C)C3C(O)(C(=O)NCCSSCCNC(=O)C5(O)C(O)C6(CC)C=CCN7CCC8(c9cc(C%10(C(=O)OC)CC%11CN(CCc%12c%10[nH]c%10ccccc%12%10)CC(O)(CC)C%11)c(OC)cc9N(C)C58)C76)C(O)C5(CC)C=CCN6CCC43C65)C2)C1 (stereo not drawn)
inactive: dose: 3000.0 micrograms/kg/injection, schedule: Q04DX003 (ip), vehicle: saline 119 % of control
active: dose: 1800.0 micrograms/kg/injection, schedule: Q04DX003 (ip), vehicle: saline 154 % of control

COc1ccc(CCNC(c2ccccc2)c2ccccc2)cc1OC
inactive: [3] 105 % of control | [7] 108 % of control | [8] 105 % of control

N#CCCN(CCC#N)C(=O)Cl
inactive: dose: 100.0 mg/kg/injection, schedule: Q01DX001 (sc), vehicle: olive oil, sesame oil, peanut oil 97 % of control | dose: 200.0 mg/kg/injection, schedule: Q01DX001 (sc), vehicle: olive oil, sesame oil, peanut oil 97 % of control | dose: 400.0 mg/kg/injection, schedule: Q01DX001 (sc), vehicle: olive oil, sesame oil, peanut oil 98 % of control

CCN(CC)CC(=O)NCC(C)(CCN1CCCCC1)c1cccc2ccccc12 (stereo not drawn)
inactive: [1] 91 % of control | [2] 93 % of control | [3] 94 % of control

O=C(Nc1ccccc1C(F)(F)F)OCC1CCCO1 (stereo not drawn)
inactive: dose: 100.0 mg/kg/injection, schedule: Q01DX009 (ip), vehicle: gum acacia 109 % of control | dose: 200.0 mg/kg/injection, schedule: Q01DX009 (ip), vehicle: gum acacia 95 % of control | dose: 400.0 mg/kg/injection, schedule: Q01DX009 (ip), vehicle: gum acacia 100 % of control

O=C1c2ccccc2-c2cc(-c3ccccc3)cc(-c3ccccc3)c21
inactive: [9] 96 % of control | [10] 104 % of control | [11] 92 % of control | [12] 94 % of control | [13] 88 % of control

NC1=Nc2cccc3cccc(c23)N1
inactive: dose: 12.5 mg/kg/injection, schedule: Q01DX009 (ip), vehicle: Klucel (hydroxypropylcellulose) (HPC) 95 % of control | dose: 12.5 mg/kg/injection, schedule: Q04DX003 (ip), vehicle: Klucel (hydroxypropylcellulose) (HPC) 95 % of control | dose: 25.0 mg/kg/injection, schedule: Q01DX009 (ip), vehicle: Klucel (hydroxypropylcellulose) (HPC) 93 % of control | dose: 25.0 mg/kg/injection, schedule: Q04DX003 (ip), vehicle: Klucel (hydroxypropylcellulose) (HPC) 92 % of control | dose: 50.0 mg/kg/injection, schedule: Q01DX009 (ip), vehicle: Klucel (hydroxypropylcellulose) (HPC) 90 % of control | dose: 50.0 mg/kg/injection, schedule: Q04DX003 (ip), vehicle: Klucel (hydroxypropylcellulose) (HPC) 98 % of control

O=C(Nc1ccc([N+](=O)[O-])cc1Cl)c1ccc(C(=O)Nc2ccc([N+](=O)[O-])cc2Cl)cc1
inactive: [14] 96 % of control | [15] 94 % of control | [16] 91 % of control

CCOC(=O)CCN(C(=O)OCC)C(COCc1ccccc1)C(=O)OCC (stereo not drawn)
inactive: [14] 104 % of control | [15] 104 % of control | [16] 98 % of control

Cc1ccc(NS(=O)(=O)c2ccc(F)cc2)cc1C
inactive: [9] 95 % of control | [10] 95 % of control | [11] 95 % of control | dose: 200.0 mg/kg/injection, schedule: Q04DX003 (ip), vehicle: Klucel (hydroxypropylcellulose) (HPC) 105 % of control | [12] 97 % of control | [13] 101 % of control

CC(=O)C1CCc2c(O)c3c(c(O)c2C1)C(=O)c1ccccc1C3=O (stereo not drawn)
inactive: dose: 87.5 mg/kg/injection, schedule: Q04DX003 (ip), vehicle: saline with Tween-80 94 % of control | dose: 175.0 mg/kg/injection, schedule: Q04DX003 (ip), vehicle: saline with Tween-80 91 % of control | dose: 350.0 mg/kg/injection, schedule: Q04DX003 (ip), vehicle: saline with Tween-80 94 % of control

CC1(C)N=C(N)N=C(N)N1c1cccc(OCCCOc2ccc([N+](=O)[O-])cc2)c1
inactive: [14] 91 % of control

CN1CCCC1c1cccc([N+](=O)[O-])c1 (stereo not drawn)
inactive: dose: 100.0 mg/kg/injection, schedule: Q01DX001 (ip), vehicle: acetone 93 % of control

COc1cc2c(c3oc(=O)ccc13)C(=O)CC(C)(C)O2
inactive: [9] 95 % of control | [3] 96 % of control | [11] 91 % of control | [7] 102 % of control | [12] 95 % of control | [8] 98 % of control

O=C(Nc1ccc(C2=NCCCN2)cc1)Nc1ccc(C2=NCCCN2)cc1
inactive: dose: 0.31 mg/kg/injection, schedule: Q01DX Z (ip), vehicle: saline 94 % of control | dose: 0.63 mg/kg/injection, schedule: Q01DX Z (ip), vehicle: saline 110 % of control | dose: 1.25 mg/kg/injection, schedule: Q01DX Z (ip), vehicle: saline 114 % of control and 119 % of control | dose: 2.5 mg/kg/injection, schedule: Q01DX Z (ip), vehicle: saline 114 % of control | dose: 4.4 mg/kg/injection, schedule: Q01DX Z (ip), vehicle: saline 96 % of control

O=C(O)CC(C(=O)O)/C(=C\c1ccccc1)c1ccccc1 (stereo not drawn)
inactive: dose: 100.0 mg/kg/injection, schedule: Q04DX002 (ip), vehicle: saline 94 % of control | dose: 200.0 mg/kg/injection, schedule: Q04DX002 (ip), vehicle: saline 113 % of control | dose: 400.0 mg/kg/injection, schedule: Q04DX002 (ip), vehicle: saline 110 % of control
